Among the data in PubChem BioAssay AID1205 (EPA DSSTox, 2008) are outcome values, retold here.

Each structure is given as a SMILES string. Calls of active or inactive are those of the source.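 Rule for the calls: active = tumour findings in long-term animal cancer tests in more than one sex, species or organ; inactive = no tumour finding and more than one negative test.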

A short description of this data set: DSSTox (CPDBAS) Carcinogenic Potency Database Summary MultiCellCall Results. To be noted: animal carcinogenicity bioassays, multi-cell call summary. A digest of the protocol: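 ActivityScore sums 50 for multispecies, 30 for multisex and 20 for multisite positivity. Based on the most positive experiment per sex-species across standardised chronic rodent and other animal cancer tests.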

`C[C@H]([C@H](O)CCC(C)(C)O)[C@H]1CC[C@@]2(O)C3=CC(=O)[C@@H]4C[C@@H](O)[C@@H](O)C[C@]4(C)[C@H]3CC[C@]12C`: the outcome was “active; multisite active; multisex active”.
Then `C[C@H](CCC(=O)O)[C@H]1CC[C@H]2[C@@H]3CC[C@@H]4C[C@H](O)CC[C@]4(C)[C@H]3CC[C@]12C`, with “inactive; multisex inactive; multispecies inactive”; and `Cc1cc(Cl)ccc1OCC(=O)O`, with “inactive; multisex inactive; multispecies inactive”; and `NNC(=O)c1ccccc1`, with “active; multisite active; multisex active”.
Under `ClC1=C(Cl)[C@@]2(Cl)[C@@H]3[C@@H](Cl)[C@H](Cl)C[C@@H]3C1(Cl)C2(Cl)Cl` stands “active; multisex active”; under `ClC1=C(Cl)[C@]2(Cl)[C@@H]3[C@@H]4C[C@@H]([C@H]5O[C@@H]45)[C@@H]3[C@@]1(Cl)C2(Cl)Cl`, “active; multisex active”; under `FC(F)OC(Cl)C(F)(F)F` (centres undefined), “inactive; multisex inactive”.
Under `C=C(Cl)Cl` stands “active; multisite active; multisex active”; under `CN(C)C(=O)Nc1cccc(C(F)(F)F)c1`, “inactive; multisex inactive; multispecies inactive”.
With `CC(O)C(=O)O` (centres undefined), the outcome is “inactive; multisex inactive”.
Then `O=C(O)CCl`, with “inactive; multisex inactive; multispecies inactive”; and `COc1ccc(CN(CCN(C)C)c2ccccn2)cc1`, with “active; multisex active”; and `CS(=O)(=O)c1ccc([C@@H](O)[C@@H](CO)NC(=O)C(Cl)Cl)cc1`, with “inactive; multisex inactive”.
Under `CCCCN(CCCCO)N=O` stands “active; multisite active; multisex active”; under `O=[N+]([O-])c1cc(N(CCO)CCO)ccc1NCCO`, “inactive; multisex inactive; multispecies inactive”; under `OCl`, “inactive; multisex inactive; multispecies inactive”.
As to `[O]=[Mo](=[O])=[O]`, the outcome was “active; multisex active”.
Then `CCC(Cl)CCC(Cl)C(Cl)CC(Cl)C(Cl)C(Cl)CCl` (centres undefined), with “active; multisite active; multisex active; multispecies active”; and `Oc1cccc2cccnc12`, with “inactive; multisex inactive; multispecies inactive”; and `Oc1ccccc1-c1ccccc1`, with “active; multisite active; multisex active”.
Then `C=CCN(CC=C)N=O`, with “active; multisex active; multispecies active”; and `CCCCNNCCCC`, with “active; multisite active; multisex active”.
Then `ClC(Cl)(Cl)c1ccccc1`, with “active; multisite active”.
On to `NNC(=O)c1cccnc1`, for which the outcome is “active; multisex active”.
Under `C/[N+]([O-])=N/CO[C@@H]1O[C@H](CO)[C@@H](O)[C@H](O)[C@H]1O` stands “active; multisite active; multispecies active”; under `Cn1cc(OCC(O)CNC(C)(C)C)c2ccccc2c1=O` (centres undefined), “inactive; multisex inactive; multispecies inactive”; under `COc1ccc(CCN2CCC(Nc3nc4ccccc4n3Cc3ccc(F)cc3)CC2)cc1`, “inactive; multisex inactive; multispecies inactive”.
Under `CN1C(=O)C[C@@H](C(=O)N[C@@H](Cc2cnc[nH]2)C(=O)N2CCC[C@H]2C(N)=O)NC1=O` stands “inactive; multisex inactive; multispecies inactive”.
Under `CC(C)(CCCOc1ccc(OCCCC(C)(C)C(=O)O)c(-c2ccccc2)c1)C(=O)O` stands “active; multisex active”; under `C/C=C1/C[C@@H](C)[C@](O)(CO)C(=O)OCC2=CC[N+]3([O-])CC[C@@H](OC1=O)[C@@H]23` (some centres undefined), “active; multisex active”.
In the case of `C[C@]12C=CC(=O)C=C1CC[C@@H]1[C@@H]2C(=O)C[C@@]2(C)[C@H]1CC[C@]2(O)C(=O)CO`, the outcome is “inactive; multisex inactive”.
Under `c1ccc2ccccc2c1` stands “active; multisite active; multisex active; multispecies active”; under `CCCCCN(CCCCC)N=O`, “active; multisex active”; under `NC(=O)N(CC(=O)O)N=O`, “active; multisite active; multisex active”.
`CCN(C)N=O`: the outcome is “active; multisite active”.
Under `O=[N+]([O-])O` stands “inactive; multisex inactive”; under `CN(C)/N=N/c1nc[nH]c1C(N)=O`, “active; multisite active; multisex active; multispecies active”; under `O=C(O)CN(CCN(CC(=O)O)CC(=O)O)CC(=O)O`, “inactive; multisex inactive; multispecies inactive”.
Then `O=[N+]([O-])c1cc([As](=O)(O)O)ccc1O`, with “inactive; multisex inactive; multispecies inactive”; and `CCOC(=O)C(O)(c1ccc(Cl)cc1)c1ccc(Cl)cc1`, with “active; multisex active”; and `O=P(O)(OCC(Br)CBr)OCC(Br)CBr` (centres undefined), with “active; multisite active; multisex active”.
As for `CC(N)=O`, the outcome was “active; multisite active; multisex active; multispecies active”.
Under `O=C1CCCCC1` stands “inactive; multisex inactive; multispecies inactive”.
Under `CC(O)CN(C)N=O` (centres undefined) stands “active; multisite active; multisex active”; under `COc1cc(-c2ccc(N=Nc3c(S(=O)(=O)O)cc4cc(S(=O)(=O)O)cc(N)c4c3O)c(OC)c2)ccc1N=Nc1c(S(=O)(=O)O)cc2cc(S(=O)(=O)O)cc(N)c2c1O`, “active; multisite active; multisex active”.
For the molecule `O=c1cc(CO)occ1O`, the outcome was “active; multisex active”.
Then `CN(C)C(=O)Nc1ccc(Cl)cc1`, with “active; multisite active”; and `NS(=O)(=O)c1cc2c(cc1Cl)NCNS2(=O)=O`, with “inactive; multisex inactive; multispecies inactive”.
Then `CCCCCCCCCCCCCCCC(=O)OC/C=C(C)/C=C/C=C(C)/C=C/C1=C(C)CCCC1(C)C`, with “inactive; multispecies inactive”; and `NC(=O)c1ccccc1C(N)=O`, with “inactive; multisex inactive; multispecies inactive”; and `CC[C@H](OC(C)=O)C(C[C@H](C)N(C)C)(c1ccccc1)c1ccccc1`, with “active; multisex active”.
For the molecule `COP(=S)(OC)Oc1ccc(SC)c(C)c1`, the outcome is “inactive; multisex inactive; multispecies inactive”.
Then `ClC1=C(Cl)C2(Cl)C3C(Cl)OC(Cl)C3C1(Cl)C2(Cl)Cl` (centres undefined), with “inactive; multisex inactive”; and `CC(C)OC(=O)COc1ccc(Cl)cc1Cl`, with “inactive; multisex inactive”.
Then `Cc1cc(O)c2c(c1)C(=O)c1cc(O)cc(O)c1C2=O`, with “inactive; multisex inactive; multispecies inactive”.
Under `CC(=O)Oc1ccccc1C(=O)O` stands “inactive; multisex inactive; multispecies inactive”; under `Cc1nnc2n1-c1sc(CCc3ccc(CC(C)C)cc3)cc1C(c1ccccc1Cl)=NC2C` (centres undefined), “inactive; multisex inactive”.
Consider `NC(=O)CCCCn1ccc(NC(N)=NCC(F)(F)F)n1`, for which the outcome was “active; multisex active; multispecies active”.
Under `CC1=C(/C=C/C(C)=C/C=C/C(C)=C/C=C/C=C(C)/C=C/C=C(C)/C=C/C2=C(C)CCCC2(C)C)C(C)(C)CCC1` stands “inactive; multisex inactive; multispecies inactive”.
Under `O=NN(CCO)CCO` stands “active; multisite active; multisex active”; under `CN(C)CCC(c1ccc(Cl)cc1)c1ccccn1` (centres undefined), “inactive; multisex inactive; multispecies inactive”; under `C=CCN(N)CC=C`, “active; multisite active; multisex active”.
Then `NC1CCCCC1`, with “inactive; multisex inactive; multispecies inactive”; and `COc1ccc(O)c(C(C)(C)C)c1`, with “active; multisex active; multispecies active”; and `CC(O)CCl` (centres undefined), with “inactive; multisex inactive; multispecies inactive”.
Consider `CCCc1ccc2c(c1)OCO2`, for which the outcome is “active; multisite active; multisex active; multispecies active”.
Then `CCN=[N+](C)[O-]`, with “active; multisite active”; and `S=C(NC1CCCCC1)NC1CCCCC1`, with “inactive; multisex inactive; multispecies inactive”; and `C[C@]12CC[C@H](OS(=O)(=O)O)CC1=CC[C@@H]1[C@@H]2CC[C@]2(C)C(=O)CC[C@@H]12`, with “inactive; multisex inactive”.
Then `O=[As]O`, with “inactive; multispecies inactive”.
Turning to `Cc1c(COC(=O)C2C(/C=C(\Cl)C(F)(F)F)C2(C)C)cccc1-c1ccccc1` (centres undefined), the outcome was “inactive; multisex inactive”.
Regarding `O=C1OC(O)C(C(Cl)Cl)=C1Cl` (centres undefined), the outcome is “active; multisite active; multisex active”.
Under `CC(COc1ccccc1)N(CCCl)Cc1ccccc1` (centres undefined) stands “active; multisex active; multispecies active”.
Then `CCN(N=O)C(N)=O`, with “active; multisite active; multisex active”; and `NNc1nc(-c2ccc(N)cc2)cs1`, with “active; multisite active; multispecies active”; and `COC(=O)C1=C(C)NC(C)=C(C(=O)OCCc2ccc(N3CCN(C(c4ccccc4)c4ccccc4)CC3)cc2)C1c1cccc([N+](=O)[O-])c1` (centres undefined), with “inactive; multisex inactive; multispecies inactive”.
Then `NC(N)=NC(N)=NCCc1ccccc1`, with “inactive; multisex inactive; multispecies inactive”.
Regarding `Cn1c(=O)c2[nH]cnc2n(C)c1=O`, the outcome was “inactive; multisex inactive; multispecies inactive”.
Under `O=[N+]([O-])c1ccc(-c2cscn2)o1` stands “active; multisite active”; under `CNNCc1ccc(C(=O)NC(C)C)cc1`, “active; multisite active; multisex active; multispecies active”.
Then `Cc1c(N)nc(C)c2c1[nH]c1ccccc12`, with “active; multisex active; multispecies active”; and `Cc1ccc(C)c(N)c1`, with “active; multisite active; multisex active; multispecies active”.
Then `CN1C(=O)CN=C(c2ccccc2)c2cc(Cl)ccc21`, with “inactive; multisex inactive; multispecies inactive”; and `CC1CN(N=O)CC(C)N1C` (centres undefined), with “active; multisite active; multisex active; multispecies active”.
